Reference: patent US12215104B2, “Anti-biofilm compounds” (UNIVERSITY OF LOUISVILLE RESEARCH FOUNDATION, INC., priority 2018, dated 2025)
Read-outs that look alike come from different tables or passages of the source.

How the values were obtained:
P. gingivalis = test: Effect on planktonic growth of P. gingivalis; format: cell-based, P. gingivalis ATCC33277; conditions: incubated overnight in the presence of 40 μM compound
Text: (§1) To assess the functional activity of the click products, compounds 28-57 (Groups I and II) and 90-124 (Group III) were examined for inhibition of P. gingivalis adherence to S. gordonii using an established biofilm model system as described in the Section 4.2.1 [41]. For each compound tested, an IC50 value for adherence inhibition was approximated after quantifying the ratio of green to red fluorescence and these values are shown in Tables 2, 3 and 4. Compounds were classified as strong (IC50<10 μM), moderate (IC50=10-20 μM) or weak (IC50>20 μM) inhibitors of adherence. Twelve compounds were identified as strong inhibitors and an additional ten compounds were classified as moderate inhibitors. […] Compounds 54, 56, 93, 95, 100, 102, 103, and 115 were also tested to determine if they affect the growth of P. gingivalis or S. gordonii. […] The sulfoxide group does impart asymmetry to the molecule; however, the mixture of enantiomers, assuming the peracid oxidation was racemic, was not separated and bioassayed. The Group III active compounds (95-117) all contain the 1,3,5-trisubstituted-2,4,6-triazine modeled after the Katzenellenbogen rendering of an active motif whereby the key leucine residues which mimicked the VXXLL receptor box lie in a triangular arrangement. While the original iteration of the Katzenellenbogen VXXLL mimics were the hydrophobic 3,5-disubstituted-di-N-alkyamino-triazine motifs, we introduced the hydrophobic 2- and 4-(fluorophenyl)amino groups at positions 3 and 5 of the 2,4,6-triazine (See Compounds 102, 111, 115, 122).
(§2) P. gingivalis ATCC33277 was grown in reduced trypticase soy broth (Difco) supplemented with 0.5 percent yeast extract, 1 μg/mL menadione, and 5 μg/mL hemin. Twenty five milliliters of medium were reduced for 24 h under anaerobic conditions by equilibrating in an atmosphere consisting of 10% CO2, 10% H2, and 80% N2. Following equilibration, P. gingivalis was inoculated in the media and grown for 48 h at 37° C. under anaerobic conditions. S. gordonii DL-1 (1) was cultured aerobically without shaking in brain heart infusion (BHI) broth supplemented with 1 percent yeast extract for 16 hours at 37° C. For some compounds that inhibited P. gingivalis adherence to S. gordonii, we determined their affect the planktonic growth of P. gingivalis and S. gordonii. Broth cultures were grown as described above and compared to cultures grown in the absence of the compound. Cell density of each culture was determined by measuring the optical density at 600 nm (O.D.600 nm) after 24 h of growth. The percent growth inhibition/stimulation was calculated using the following equation: [(O.D.600 nm of the control/O.D.600 nm of the culture grown in the presence of compound)−1]×100.

S. gordonii = test: Effect on planktonic growth of S. gordonii; format: cell-based, S. gordonii DL-1; conditions: incubated overnight in the presence of 40 μM compound
Text: as §1, §2

[1] = system: P. gingivalis adherence to S. gordonii; test: Inhibition of P. gingivalis adherence to S. gordonii in two-species biofilm model; format: cell-based, P. gingivalis ATCC33277; S. gordonii DL-1
Text: as §1, §2
Two species biofilms were formed essentially as previously described. To prepare bacterial cells for biofilm culture, 10 ml of an overnight S. gordonii culture was centrifuged at 5600 rpm for 5 min and the cell pellet was suspended in 1 mL sterile PBS. Subsequently, 20 μL of 5 mg/ml hexidium iodide (Molecular Probes) was added to the cell suspension and incubated for 15 min with gentle shaking at room temperature in the dark. The labeled cells were centrifuged as described above, washed with phosphate buffered saline (10 mM Na2HPO4, […], […], and 2.7 mM KCl, pH 7.2; [PBS]) and the cell pellet was suspended in PBS at a final O.D.600 nm of 0.8. Similarly, 10 mL of a 48 h culture of P. gingivalis was centrifuged at 5600 rpm for 15 min, the cell pellet was suspended in 1 mL PBS and 20 μl of 5(6)-carboxyfluorescein N-hydroxysuccinimide ester (4 mg/ml, Molecular Probes, Inc.) was added. After incubation for 30 min with gentle shaking at room temperature in the dark, the suspension was centrifuged and washed as described above and suspended in PBS at a final O.D.600 nm of 0.4. […]

gingival keratinocytes = test: Induction of apoptosis in gingival keratinocytes; format: cell-based
[2] = system: pre-existing 3-species biofilm; test: Disruption of a pre-existing 3-species biofilm in vitro; format: cell-based; conditions: 20 μM
[3] = Table 3, Group II click products, concentration reducing green to red fluorescence ratio by 50%, approximated
[4] = read-out: IC50 for inhibition of adherence of P. gingivalis to S. gordonii

COc1ccccc1-c1cn(-c2ccc(S(=O)(=O)Cc3nc(-c4ccc(F)cc4)c(-c4ccc(F)cc4)o3)cc2)nn1 [Compound 54]
effect on growth of planktonic cultures of P. gingivalis (P. gingivalis): No effect on growth
effect on growth of planktonic cultures of S. gordonii (S. gordonii): No effect on growth
IC50 [1, 3]: 21.2 µM

O=S(=O)(Cc1nc(-c2ccc(Cl)cc2)c(-c2ccc(Cl)cc2)o1)c1ccc(-n2cc(-c3ccc(F)cc3)nn2)cc1 [Compound 56]
effect on growth of planktonic cultures of P. gingivalis (P. gingivalis): No effect on growth
effect on growth of planktonic cultures of S. gordonii (S. gordonii): No effect on growth
IC50 [1, 3]: 6.3 µM

CCN(CC)c1nc(-c2cn(-c3ccc(-c4nc(-c5ccc(F)cc5)c(-c5ccc(F)cc5)o4)cc3)nn2)nc(N(CC)CC)n1 [Compound 93]
effect on growth of planktonic cultures of P. gingivalis (P. gingivalis): No effect on growth
effect on growth of planktonic cultures of S. gordonii (S. gordonii): No effect on growth
IC50 ([1]; Group III): 9.4 µM

CCN(CC)c1nc(-c2cn(-c3ccc(-c4nc(-c5ccc(Cl)cc5)c(-c5ccc(Cl)cc5)o4)cc3)nn2)nc(N(CC)CC)n1 [Compound 95]
early apoptosis (gingival keratinocytes; 5 μM, gingival keratinocytes): 5.02
late apoptosis (gingival keratinocytes; 5 μM, gingival keratinocytes): 4.27
live cells (gingival keratinocytes; 5 μM, gingival keratinocytes): 88.50
early apoptosis (gingival keratinocytes; 20 μM, gingival keratinocytes): 4.89
late apoptosis (gingival keratinocytes; 20 μM, gingival keratinocytes): 4.26
live cells (gingival keratinocytes; 20 μM, gingival keratinocytes): 88.35
early apoptosis (gingival keratinocytes; 40 μM, gingival keratinocytes): 3.80
late apoptosis (gingival keratinocytes; 40 μM, gingival keratinocytes): 2.83
live cells (gingival keratinocytes; 40 μM, gingival keratinocytes): 91.75
effect on growth of planktonic cultures of P. gingivalis (P. gingivalis): No effect on growth
disruption of pre-existing 3-species biofilm ([2]; time treated 1 h): 16.47
disruption of pre-existing 3-species biofilm ([2]; time treated 2 h): 52.84
disruption of pre-existing 3-species biofilm ([2]; time treated 3 h): 81
effect on growth of planktonic cultures of S. gordonii (S. gordonii): No effect on growth
IC50 ([1]; Group III): 3.7 µM
IC50 [1, 4]: 2.3 to 5.3 µM

Fc1ccccc1Nc1nc(Nc2ccccc2F)nc(-c2cn(-c3cccc(-c4nc(-c5ccccc5)c(-c5ccccc5)o4)c3)nn2)n1 [Compound 100]
effect on growth of planktonic cultures of P. gingivalis (P. gingivalis): No effect on growth
effect on growth of planktonic cultures of S. gordonii (S. gordonii): No effect on growth

Fc1ccc(-c2nc(-c3cccc(-n4cc(-c5nc(Nc6ccccc6F)nc(Nc6ccccc6F)n5)nn4)c3)oc2-c2ccc(F)cc2)cc1 [Compound 102]
effect on growth of planktonic cultures of P. gingivalis (P. gingivalis): No effect on growth
effect on growth of planktonic cultures of S. gordonii (S. gordonii): No effect on growth
IC50 ([1]; Group III): 5 µM

Fc1ccc(-c2nc(-c3ccc(-n4cc(-c5nc(Nc6ccccc6F)nc(Nc6ccccc6F)n5)nn4)cc3)oc2-c2ccc(F)cc2)cc1 [Compound 103]
effect on growth of planktonic cultures of P. gingivalis (P. gingivalis): No effect on growth
effect on growth of planktonic cultures of S. gordonii (S. gordonii): No effect on growth
IC50 ([1]; Group III): 12.3 µM

Fc1ccc(Nc2nc(Nc3ccc(F)cc3)nc(-c3cn(-c4cccc(-c5nc(-c6ccccc6)c(-c6ccccc6)o5)c4)nn3)n2)cc1 [Compound 111]
early apoptosis (gingival keratinocytes; 5 μM, gingival keratinocytes): 4.96
late apoptosis (gingival keratinocytes; 5 μM, gingival keratinocytes): 2.36
live cells (gingival keratinocytes; 5 μM, gingival keratinocytes): 89.25
early apoptosis (gingival keratinocytes; 20 μM, gingival keratinocytes): 5.06
late apoptosis (gingival keratinocytes; 20 μM, gingival keratinocytes): 3.39
live cells (gingival keratinocytes; 20 μM, gingival keratinocytes): 87.95
early apoptosis (gingival keratinocytes; 60 μM, gingival keratinocytes): 5.60
late apoptosis (gingival keratinocytes; 60 μM, gingival keratinocytes): 4.38
live cells (gingival keratinocytes; 60 μM, gingival keratinocytes): 84.40
disruption of pre-existing 3-species biofilm ([2]; time treated 1 h): 0.62
disruption of pre-existing 3-species biofilm ([2]; time treated 2 h): 7.33
disruption of pre-existing 3-species biofilm ([2]; time treated 3 h): 56.63
IC50 ([1]; Group III): 4.3 µM
IC50 [1, 4]: 2.3 to 5.3 µM

Fc1ccc(Nc2nc(Nc3ccc(F)cc3)nc(-c3cn(-c4ccc(-c5nc(-c6ccc(F)cc6)c(-c6ccc(F)cc6)o5)cc4)nn3)n2)cc1 [Compound 115]
early apoptosis (gingival keratinocytes; 5 μM, gingival keratinocytes): 3.89
late apoptosis (gingival keratinocytes; 5 μM, gingival keratinocytes): 4.21
live cells (gingival keratinocytes; 5 μM, gingival keratinocytes): 87.85
early apoptosis (gingival keratinocytes; 10 μM, gingival keratinocytes): 4.07
late apoptosis (gingival keratinocytes; 10 μM, gingival keratinocytes): 2.47
live cells (gingival keratinocytes; 10 μM, gingival keratinocytes): 91.25
early apoptosis (gingival keratinocytes; 20 μM, gingival keratinocytes): 4.06
late apoptosis (gingival keratinocytes; 20 μM, gingival keratinocytes): 2.80
live cells (gingival keratinocytes; 20 μM, gingival keratinocytes): 91.20
effect on growth of planktonic cultures of P. gingivalis (P. gingivalis): No effect on growth
disruption of pre-existing 3-species biofilm ([2]; time treated 1 h): 15.26
disruption of pre-existing 3-species biofilm ([2]; time treated 2 h): 45.62
disruption of pre-existing 3-species biofilm ([2]; time treated 3 h): 76.06
effect on growth of planktonic cultures of S. gordonii (S. gordonii): No effect on growth
IC50 ([1]; Group III): 2.3 µM
IC50 [1, 4]: 2.3 to 5.3 µM

Fc1ccc(Nc2nc(Nc3ccc(F)cc3)nc(-c3cn(-c4ccccc4-c4nc(-c5ccc(Cl)cc5)c(-c5ccc(Cl)cc5)o4)nn3)n2)cc1 [Compound 116]
IC50 ([1]; Group III): > 40 µM

Fc1ccc(Nc2nc(Nc3ccc(F)cc3)nc(-c3cn(-c4cccc(-c5nc(-c6ccc(Cl)cc6)c(-c6ccc(Cl)cc6)o5)c4)nn3)n2)cc1 [Compound 117]
IC50 ([1]; Group III): 27.8 µM
IC50 [1, 4]: 2.3 to 5.3 µM

Fc1ccc(Nc2nc(Nc3ccc(F)cc3)nc(-c3cn(-c4ccc(-c5nc(-c6ccc(Cl)cc6)c(-c6ccc(Cl)cc6)o5)cc4)nn3)n2)cc1 [Compound 118]
IC50 ([1]; Group III): 13.3 µM

COc1ccc(-c2nc(-c3ccccc3-n3cc(-c4nc(Nc5ccc(F)cc5)nc(Nc5ccc(F)cc5)n4)nn3)oc2-c2ccc(OC)cc2)cc1 [Compound 119]
IC50 ([1]; Group III): > 60 µM

COc1ccc(-c2nc(-c3cccc(-n4cc(-c5nc(Nc6ccc(F)cc6)nc(Nc6ccc(F)cc6)n5)nn4)c3)oc2-c2ccc(OC)cc2)cc1 [Compound 120]
IC50 ([1]; Group III): > 60 µM

COc1ccc(-c2nc(-c3ccc(-n4cc(-c5nc(Nc6ccc(F)cc6)nc(Nc6ccc(F)cc6)n5)nn4)cc3)oc2-c2ccc(OC)cc2)cc1 [Compound 121]
IC50 ([1]; Group III): > 60 µM

Fc1ccc(Nc2nc(Nc3ccc(F)cc3)nc(-c3cn(-c4ccccc4-c4nc(-c5ccco5)c(-c5ccco5)o4)nn3)n2)cc1 [Compound 122]
early apoptosis (gingival keratinocytes; 5 μM, gingival keratinocytes): 4.50
late apoptosis (gingival keratinocytes; 5 μM, gingival keratinocytes): 3.95
live cells (gingival keratinocytes; 5 μM, gingival keratinocytes): 88.30
early apoptosis (gingival keratinocytes; 20 μM, gingival keratinocytes): 5.93
late apoptosis (gingival keratinocytes; 20 μM, gingival keratinocytes): 2.92
live cells (gingival keratinocytes; 20 μM, gingival keratinocytes): 88.80
early apoptosis (gingival keratinocytes; 60 μM, gingival keratinocytes): 7.54
late apoptosis (gingival keratinocytes; 60 μM, gingival keratinocytes): 4.59
live cells (gingival keratinocytes; 60 μM, gingival keratinocytes): 83.65
disruption of pre-existing 3-species biofilm ([2]; time treated 1 h): 0
disruption of pre-existing 3-species biofilm ([2]; time treated 2 h): 25.71
disruption of pre-existing 3-species biofilm ([2]; time treated 3 h): 68.82
IC50 ([1]; Group III): 2.4 µM

Fc1ccc(Nc2nc(Nc3ccc(F)cc3)nc(-c3cn(-c4cccc(-c5nc(-c6ccco6)c(-c6ccco6)o5)c4)nn3)n2)cc1 [Compound 123]
IC50 ([1]; Group III): 8 µM

Fc1ccc(Nc2nc(Nc3ccc(F)cc3)nc(-c3cn(-c4ccc(-c5nc(-c6ccco6)c(-c6ccco6)o5)cc4)nn3)n2)cc1 [Compound 124]
IC50 ([1]; Group III): 7.8 µM

OO [Compound H2O2, H2O2, reference compound]
early apoptosis (gingival keratinocytes; 4 mM 1 h, positive control): 35.60
late apoptosis (gingival keratinocytes; 4 mM 1 h, positive control): 41.50
live cells (gingival keratinocytes; 4 mM 1 h, positive control): 11.30
